According to patent US9522124B2, “Methods for treating Alzheimer's disease” (Wisconsin Alumni Research Foundation, priority 2011, dated 2016):

Key:
Aβ [1] = assay: ELISA determination of secreted Aβ in conditioned media of H4 cells; assay type: cell-based, human; conditions: 10 μM, 48 hours
Description: For Aβ determinations in the conditioned media, H4 cells were plated in 6-well Petri dishes. When 80-90% confluent, cells were washed in PBS and incubated in 1 ml of fresh medium for 48 hr. Secreted Aβ was determined by standard sandwich ELISA as described before (Costantini et al., 2007; Costantini et al., 2006; Jonas et al., 2008; Jonas et al., 2010; Ko and Puglielli, 2009; Pehar et al., 2010). For each sample, the levels of Aβ40, Aβ42, and Aβtotal were quantified as triplicate based upon standard curves run (on every ELISA plate) and then expressed as pmol Aβ/mg of protein. Aβ42 was constantly found to be ˜25% of total Aβ values.

[2] = tested on: cytosolic and nuclear proteins, histone proteins H3 and H4; assay: Lysine acetylation profile of cytosolic and nuclear proteins in H4 cells; assay type: cell-based, human; conditions: 48 hours
Description: FIG. 8. […] (A and B) H4 cells were treated with either compound 9 or 19 for 48 hours prior to Western blot assessment of the acetylation profile of cytosolic (A) and nuclear (B) proteins. (C) The nuclear fraction used in (B) was also used to assess the lysine acetylation profile of the histone proteins H3 and H4.
(§1) Western blotting was performed on a 4-12% Bis-Tris SDS-PAGE system (NuPAGE; Invitrogen, Carlsbad, Calif., USA) as described previously (Costantini et al., 2006; Jonas et al., 2008; Jonas et al., 2010; Ko and Puglielli, 2007; Ko and Puglielli, 2009; Pehar et al., 2010). The following antibodies were used in this study: anti-acetylated lysine (monoclonal; cat. no. ab409; Abcam, Cambridge, Mass., USA); anti-BACE1 (polyclonal; cat. no. ab2077; Abcam); anti-Myc (monoclonal; cat. no. sc-40; santa cruz, Santa Cruz, Calif., USA); anti-ATases/NAT8 (polyclonal; cat. no. AP4957c; Abgent, San Diego, Calif., USA); anti-actin (monoclonal; cat. no. A1978; Sigma, St Louis, Mo., USA); anti-C99 (monoclonal; cat. no. M066-3; MBL, Woburn, Mass., USA); anti-acetylated H3 (polyclonal; cat. no. 06-599, Millipore, Billerica, Mass.); anti-acetylated H4 (polyclonal; cat. no. 06-866, Millipore, Billerica, Mass.); anti-αPCNA (polyclonal; cat. no. AP2835b, Abgent, San Diego, Calif., USA).
Cytosolic and nuclear extracts were prepared as described before (Ko and Puglielli, 2007). For cytosolic extracts, cells were homogenized in homogenization buffer containing 25 mM Tris-HCl, pH 7.4, 0.5 mM EDTA, 0.5 mM EGTA, and a protease inhibitor mixture. The homogenates were centrifuged at 14,000×g for 15 min, and supernatants were collected as cytosolic proteins.
For nuclear extracts cells were scraped into ice-cold phosphate-buffered saline and collected by centrifugation. The cell pellets were suspended in 3 volumes of lysis buffer (20 mM Hepes, pH 7.9, 10 mM KCl, 1 mM EDTA, pH 8.0, 0.2% Nonidet P-40, 10% glycerol, and a protease inhibitor mixture) followed by incubation on ice for 10 min. Cell suspensions were gently pipetted up and down; the lysates were then centrifuged at 14,000×g for 5 min at 4° C. to obtain nuclear pellets. Nuclear pellets were washed twice with cell lysis buffer (lacking Nonidet P-40 and protease inhibitor mixture) and then resuspended in 2 volumes of nuclear extract buffer (20 mM Hepes, pH 7.9, 10 mM KCl, 1 mM EDTA, pH 8.0, 420 mM NaCl, 20% glycerol, and a protease inhibitor mixture). The nuclei were extracted by incubation at 4° C. for 30 min with gentle agitation followed by centrifugation at 14,000×g at 4° C. for 5 min; the resultant supernatant fraction was used as a nuclear extract.

BACE1 = assay: Western blot assessment of BACE1 levels in H4 cell lysates; assay type: cell-based, human; conditions: H4 cells, 48 hours
Description: as §1
Samples were imaged with classical chemiluminescence and with the LiCor Odyssey Infrared Imaging System (LI-COR Biosciences, Lincoln, Nebr., USA). For chemiluminescent detection, HRP-conjugated anti-mouse or anti-rabbit secondary antibodies were used at 1:6000 dilution in 3% BSA/TBST (GE Healthcare). Detection was performed with either Lumiglo (KPL) or ECL Plus (GE Healthcare). For infrared imaging, goat anti-rabbit Alexa Fluor 680-conjugated secondary antibodies were used.
To assess their biological effects, we treated human neuroglioma (H4) cells with 10 μM of both compounds. […] This might reflect different kinetics of inhibition as well as different IC50s (see FIG. 2). Alternatively, it might also be explained by different cell-permeability properties. In fact, the cLog P for compound 9 and 19 is 5.03 and 3.19, respectively. The cLog P (or partition coefficient) is an indication of partition properties of a compound between hydrophobic and hydrophilic compartments. Higher values indicate preferential distribution in hydrophobic environments and, as such, increased permeability across biological membranes.

Aβ [3] = assay: Aβ levels in brain homogenates (cortex) of APP695/swe mice; assay type: in vivo, mouse
Description: A group of non-transgenic and APP695/swe mice were fed a diet containing 50 mg/kg/day of compound 9. Treatment started at weaning (˜6 weeks of age) and lasted 4 months. At the end of treatment, the animals were sacrificed and the electrophysiological properties of hippocampal brain slices (as induced by theta burst stimulation to the Schaffer collaterals) were studied.
Note that at this age, the animals have not yet developed plaques. As expected from our previous results in cellular models (Ko and Puglielli, 2009), no effect on the Aβ42/Aβtotal ratio was observed (data not shown). In fact compound 9 affects BACE1 levels and, as such, impacts on the generation of all Aβ species.

O=c1c(Cl)c2oc3ccccc3nc-2c2ccccc12 [Compound 9]
levels of Aβ in the conditioned media / generation of Aβ (Aβ [1]): decreased levels of Aβ
acetylation profile of cytosolic and nuclear proteins [2]: Neither compound 9 nor compound 19 produced significant changes
acetylation profile of the histone protein H3 and H4 ([2]; nuclear fraction): slight reduction
levels of BACE1 (BACE1; 10 μM): significant reduction
levels of BACE1 with increasing concentrations (BACE1; increasing concentrations): dose-dependent decrease
reduction in soluble Aβ in the brain homogenates (Aβ [3]; 50 mg/kg/day in diet, 4 months): ~50%
Aβ (Aβ [3]; brain homogenates (cortex), 50 mg/kg/day in diet, 4 months): 178 ± 14 ng/gr
Aβ42/Aβtotal ratio (Aβ [3]; data not shown): no effect
